Experimental data taken from patent US20240319207A1, “METHOD FOR IDENTIFYING T-CELL EPITOPE SEQUENCE, AND APPLICATION OF SAME” (priority 2021, published 2024).

Experiments:
T cells = details: peptide sequence including the TREM sequence (from TCRβ repertoire, Table 12 no) activates T cells to induce interferon-γ; cited from earlier work
[1] = tested on: human peripheral blood monocyte cells, second type (HLA-DRB1*13:01, 14:06); test: ELISPOT assay for interleukin-4, cell 2; assay type: cell-based; details: 4×10^5 cells per well, peptide 10 μg/ml, 48 hours, after 13 days culture with peptide 1 μg/ml and IL-2
Method: (§1) There was performed an assay for specifying a peptide that could actually be an antigen from the peptide candidate list obtained up to Example 8. In this example, it was confirmed whether the sequence of the peptide obtained as described above could function as a T cell epitope. Of the 12 highly versatile epitope candidates obtained above, 8 epitope candidates were subjected to an assay using peptides.
(§2) Human peripheral blood monocyte cells carrying HLA types and showing high binding affinity with 8 peptide sequences in Example 8 were used. Specifically, human peripheral blood monocyte cells carrying the following 2 types of HLA types were purchased from Lonza K.K. (Tokyo, Japan) and used. The HLA types of the first type of human peripheral blood monocyte cells used were HLA-DPA1*01:03, 02:02, HLA-DPB1*04:01, 05:01, HLA-DQA1*01:02, 02:01, HLA-DQB1*03:03, 05:02, and HLA-DRB1*07:01, 15:02. The HLA types of the second type of human peripheral blood monocyte cells were HLA-DPA1*01:03, HLA-DPB1*04:01, 04:02, HLA-DOA1*01:03, 05:05, HLA-DOB1*03:01, 06:03, and HLA-DRB1*13:01,14:06.
(§3) Cells were cultured in the following manner. […]
(§4) ELISPOT assays for interferon-γ and interleukin-4 were conducted. […] The number of spots of the color-developed plate was measured by a contract analysis service of M&S TechnoSystems, Inc. (Osaka, Japan).

[2] = tested on: human peripheral blood monocyte cells, first type (HLA-DRB1*07:01, 15:02); test: ELISPOT assay for interleukin-4, cell 1; assay type: cell-based; details: 4×10^5 cells per well, peptide 10 μg/ml, 48 hours, after 13 days culture with peptide 1 μg/ml and IL-2
Method: as §1, §2, §3, §4

Row | Substance | IFN-g release (T cells) | ELISPOT IL-4 cell 2 (number of spots) [1] | ELISPOT IL-4 cell 1 (number of spots) [2]
1 | 15 (LITMDWTWRFLFVVA; listed as Homo sapiens) [compound 15] | Positive |  | 
2 | 7 (QDEKGVTQNGRLITA; listed as Homo sapiens) [compound 7] |  | 12 | 6
